Reference: patent publication US10202389B2, “Pyrazolopyrimidinyl inhibitors of ubiquitin-activating enzyme” (Millennium Pharmaceuticals, Inc., priority 2012, dated 2019)

Molecular target: recombinant human UAE (Homo sapiens (Human), UniProt P22314)
Assay: Ubiquitin Activating Enzyme (UAE) HTRF Assay
Details: read-out: % inhibition @0.111 μM
Method: After incubation for 120 minutes, quantification of the FRET is performed on the Pherostar (BMG).
For compounds whose values are marked with an asterisk (*), mouse UAE was used. For all other compounds, human UAE was used.

Sequence of recombinant human UAE (P22314 whole entry): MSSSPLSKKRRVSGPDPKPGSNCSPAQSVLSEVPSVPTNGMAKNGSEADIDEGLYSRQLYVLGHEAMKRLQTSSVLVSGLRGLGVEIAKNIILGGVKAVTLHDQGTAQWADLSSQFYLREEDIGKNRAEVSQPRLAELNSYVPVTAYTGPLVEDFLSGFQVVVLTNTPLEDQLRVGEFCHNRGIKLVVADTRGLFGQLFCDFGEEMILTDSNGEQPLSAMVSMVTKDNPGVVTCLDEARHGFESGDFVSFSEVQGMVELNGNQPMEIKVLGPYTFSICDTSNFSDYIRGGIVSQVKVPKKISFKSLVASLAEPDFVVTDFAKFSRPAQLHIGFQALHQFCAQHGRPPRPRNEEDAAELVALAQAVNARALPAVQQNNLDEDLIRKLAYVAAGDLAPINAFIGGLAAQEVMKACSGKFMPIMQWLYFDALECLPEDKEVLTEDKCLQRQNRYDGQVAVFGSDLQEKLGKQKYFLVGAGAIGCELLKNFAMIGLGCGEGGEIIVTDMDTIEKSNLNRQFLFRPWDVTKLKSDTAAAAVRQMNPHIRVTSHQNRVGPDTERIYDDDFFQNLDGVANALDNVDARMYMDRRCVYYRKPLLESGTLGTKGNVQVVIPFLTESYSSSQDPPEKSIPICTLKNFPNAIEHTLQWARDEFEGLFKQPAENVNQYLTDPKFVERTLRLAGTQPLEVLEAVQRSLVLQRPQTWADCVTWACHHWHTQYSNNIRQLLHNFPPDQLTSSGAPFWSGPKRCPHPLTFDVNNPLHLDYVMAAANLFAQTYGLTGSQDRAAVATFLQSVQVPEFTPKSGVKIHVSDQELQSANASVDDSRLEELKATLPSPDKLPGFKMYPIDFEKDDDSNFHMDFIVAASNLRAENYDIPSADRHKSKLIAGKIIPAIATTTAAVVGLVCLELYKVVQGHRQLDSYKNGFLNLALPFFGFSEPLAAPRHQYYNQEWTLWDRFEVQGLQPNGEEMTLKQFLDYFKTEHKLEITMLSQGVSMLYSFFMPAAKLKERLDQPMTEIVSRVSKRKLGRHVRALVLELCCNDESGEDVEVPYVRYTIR

SMILES | inhibition at 0.111 µM [%]
NS(=O)(=O)OC[C@H]1C[C@@H](Nc2ccnc3cc(-c4cncc(-c5ccccc5)n4)nn23)[C@H](O)[C@@H]1O (relative stereo) [Compound I-121, (rac)-((1R,2R,3S,4R)-2,3-dihydroxy-4-{[2-(6-phenylpyrazin-2-yl)pyrazolo[1,5-a]pyrimidin-7-yl]aminolcyclopentyl)methylrel-sulfamate] | 100
NS(=O)(=O)OC[C@H]1C[C@@H](Nc2ccnc3cc(-c4cc(C(F)(F)F)ccc4F)nn23)[C@H](O)[C@@H]1O (relative stereo) [Compound I-029, (rac)-((1R,2R,3S,4R)-4-((2-(2-Fluoro-5-(trifluoromethyl)phenyl)pyrazolo[1,5-a]pyrimidin-7-yl)amino)-2,3-dihydroxycyclopentyl)methyl rel-sulfamate] | 100
NS(=O)(=O)OC[C@H]1C[C@@H](Nc2ccnc3cc(-c4cccc5c4oc4ccccc45)nn23)[C@H](O)[C@@H]1O (relative stereo) [Compound I-010, (rac)-((1R,2R,3S,4R)-4-(2-(dibenzo[b,d]furan-4-yl)pyrazolo[1,5-a]pyrimidin-7-ylamino)-2,3-dihydroxycyclopentyl)methyl rel-sulfamate] | 100
Cc1ccc(Cl)cc1-c1cc2nccc(N[C@@H]3C[C@H](COS(N)(=O)=O)[C@@H](O)[C@H]3O)n2n1 (relative stereo) [Compound I-021, (rac)-((1R,2R,3S,4R)-4-(2-(5-chloro-2-methylphenyl)pyrazolo[1,5-a]pyrimidin-7-ylamino)-2,3-dihydroxycyclopentyl)methyl rel-sulfamate] | 97
COc1ccc(OC(F)(F)F)cc1-c1cc2nccc(N[C@@H]3C[C@H](COS(N)(=O)=O)[C@@H](O)[C@H]3O)n2n1 [Compound I-102, (s.e)-[(1R,2R,3S,4R)-2,3-dihydroxy-4-({2-[2-methoxy-5-(trifluoromethoxy)-phenyl]pyrazolo[1,5-a]pyrimidin-7-yl}amino)cyclopentyl]methyl sulfamate] | 100
NS(=O)(=O)OC[C@H]1C[C@@H](Nc2ccnc3cc(-c4csc5ccccc45)nn23)[C@H](O)[C@@H]1O (relative stereo) [Compound I-022, (rac)-((1R,2R,3S,4R)-4-(2-(benzo[b]thiophen-3-yl)pyrazolo[1,5-a]pyrimidin-7-ylamino)-2,3-dihydroxycyclopentyl)methyl rel-sulfamate] | 100
COc1ccc(Cl)cc1-c1cc2nccc(N[C@@H]3C[C@H](COS(N)(=O)=O)[C@@H](O)[C@H]3O)n2n1 (relative stereo) [Compound I-020, (rac)-((1R,2R,3S,4R)-4-(2-(5-chloro-2-methoxyphenyl)pyrazolo[1,5-a]pyrimidin-7-ylamino)-2,3-dihydroxycyclopentyl)methyl rel-sulfamate] | 100
NS(=O)(=O)OC[C@H]1C[C@@H](Nc2ccnc3cc(-c4cccc(-c5ccccn5)c4)nn23)[C@H](O)[C@@H]1O (relative stereo) [Compound I-036, (rac)-((1R,2R,3S,4R)-2,3-Dihydroxy-4-((2-(3-(pyridin-2-yl)phenyl)pyrazolo[1,5-a]pyrimidin-7-yl)amino)cyclopentyl)methyl rel-sulfamate] | 100
NS(=O)(=O)OC[C@H]1C[C@@H](Nc2ccnc3cc(-c4cccc5c4oc4ccccc45)nn23)[C@H](O)[C@@H]1O [Compound I-103, (s.e.)-((1R,2R,3S,4R)-4-(2-(dibenzo[b,d]furan-4-yl)pyrazolo[1,5-a]pyrimidin-7-ylamino)-2,3-dihydroxycyclopentyl)methyl sulfamate] | 100
NS(=O)(=O)OC[C@H]1C[C@@H](Nc2ccnc3cc(-c4cc5ccccc5o4)nn23)[C@H](O)[C@@H]1O (relative stereo) [Compound I-086, (rac)-((1R,2R,3S,4R)-4-(2-(benzofuran-2-yl)pyrazolo[1,5-a]pyrimidin-7-ylamino)-2,3-dihydroxycyclopentyl)methyl rel-sulfamate] | 99
C#Cc1cccc(-c2cc3nccc(N[C@@H]4C[C@H](COS(N)(=O)=O)[C@@H](O)[C@H]4O)n3n2)c1 (relative stereo) [Compound I-083, (rac)-[(1R,2R,3S,4R)-4-{[2-(3-ethynylphenyl)pyrazolo[1,5-a]pyrimidin-7-yl]amino}-2,3-dihydroxycyclopentyl]methyl rel-sulfamate] | 100
NS(=O)(=O)OC[C@H]1C[C@@H](Nc2ccnc3cc(-c4cc(F)c5ccccc5c4)nn23)[C@H](O)[C@@H]1O [Compound I-118, (s.e.)-((1R,2R,3S,4R)-4-(2-(4-fluoronaphthalen-2-yl)pyrazolo[1,5-a]pyrimidin-7-ylamino)-2,3-dihydroxycyclopentyl)methyl sulfamate] | 100
NS(=O)(=O)OC[C@H]1C[C@@H](Nc2ccnc3cc(-c4coc5ccc(Cl)cc45)nn23)[C@H](O)[C@@H]1O (relative stereo) [Compound I-092, (rac)-((1R,2R,3S,4R)-4-(2-(5-chlorobenzofuran-3-yl)pyrazolo[1,5-a]pyrimidin-7-ylamino)-2,3-dihydroxycyclopentyl)methyl rel-sulfamate] | 100
NS(=O)(=O)OC[C@H]1C[C@@H](Nc2ccnc3cc(-c4nc(-c5ccccc5)cs4)nn23)[C@H](O)[C@@H]1O (relative stereo) [Compound I-031, (rac)-[(1R,2R,3S,4R)-2,3-dihydroxy-4-{[2-(4-phenyl-1,3-thiazol-2-yl)pyrazolo[1,5-a]pyrimidin-7-yl]amino}cyclopentyl]methyl rel-sulfamate] | 100
Cc1sc(-c2ccccc2)nc1-c1cc2nccc(N[C@@H]3C[C@H](COS(N)(=O)=O)[C@@H](O)[C@H]3O)n2n1 (relative stereo) [Compound I-038, (rac)-[(1R,2R,3S,4R)-2,3-dihydroxy-4-{[2-(5-methyl-2-phenyl-1,3-thiazol-4-yl)pyrazolo[1,5-a]pyrimidin-7-yl]amino}cyclopentyl]methyl rel-sulfamate] | 100
COc1ccc2ccccc2c1-c1cc2nccc(N[C@@H]3C[C@H](COS(N)(=O)=O)[C@@H](O)[C@H]3O)n2n1 [Compound I-104, (s.e.)-((1R,2R,3S,4R)-2,3-dihydroxy-4-(2-(2-methoxynaphthalen-1-yl)pyrazolo[1,5-a]pyrimidin-7-ylamino)cyclopentyl)methyl sulfamate] | 100
NS(=O)(=O)OC[C@H]1C[C@@H](Nc2ccnc3cc(-c4ccc(OC(F)F)c5ccccc45)nn23)[C@H](O)[C@@H]1O [Compound I-112, (s.e.)-((1R,2R,3S,4R)-4-(2-(4-(difluoromethoxy)naphthalen-1-yl)pyrazolo[1,5-a]pyrimidin-7-ylamino)-2,3-dihydroxycyclopentyl)methyl sulfamate] | 100
NS(=O)(=O)OC[C@H]1C[C@@H](Nc2ccnc3cc(-c4c[nH]c5ccccc45)nn23)[C@H](O)[C@@H]1O (relative stereo) [Compound I-032, (rac)-[(1R,2R,3S,4R)-2,3-dihydroxy-4-{[2-(1H-indol-3-yl)pyrazolo[1,5-a]pyrimidin-7-yl]amino}cyclopentyl]methyl rel-sulfamate] | 100
CC(C)(C)c1cccc(-c2cc3nccc(N[C@@H]4C[C@H](COS(N)(=O)=O)[C@@H](O)[C@H]4O)n3n2)c1 (relative stereo) [Compound I-015, (rac)-((1R,2R,3S,4R)-4-((2-(3-(tert-Butyl)phenyl)pyrazolo[1,5-a]pyrimidin-7-yl)amino)-2,3-dihydroxycyclopentyl)methyl rel-sulfamate] | 100
CC(C)Oc1ccc2ccccc2c1-c1cc2nccc(N[C@@H]3C[C@H](COS(N)(=O)=O)[C@@H](O)[C@H]3O)n2n1 [Compound I-109, (s.e.)-((1R,2R,3S,4R)-2,3-dihydroxy-4-(2-(2-isopropoxynaphthalen-1-yl)pyrazolo[1,5-a]pyrimidin-7-ylamino)cyclopentyl)methyl sulfamate] | 100
Cc1ccc(-c2cc3nccc(N[C@@H]4C[C@H](COS(N)(=O)=O)[C@@H](O)[C@H]4O)n3n2)c2ccccc12 [Compound I-115, (s.e.)-((1R,2R,3S,4R)-2,3-dihydroxy-4-(2-(4-methylnaphthalen-1-yl)pyrazolo[1,5-a]pyrimidin-7-ylamino)cyclopentyl)methyl sulfamate] | 100
NS(=O)(=O)OC[C@H]1C[C@@H](Nc2ccnc3cc(-c4cccc(SC(F)(F)F)c4)nn23)[C@H](O)[C@@H]1O [Compound I-101, (s.e.)-((1R,2R,3S,4R)-2,3-dihydroxy-4-(2-(3-(trifluoromethylthio)phenyl)pyrazolo[1,5-a]pyrimidin-7-ylamino)cyclopentyl)methyl sulfamate] | 99
NS(=O)(=O)OC[C@H]1C[C@@H](Nc2ccnc3cc(-c4ccccc4Oc4ccccc4)nn23)[C@H](O)[C@@H]1O (relative stereo) [Compound I-068, (rac)-((1R,2R,3S,4R)-2,3-dihydroxy-4-(2-(2-phenoxyphenyl)pyrazolo[1,5-a]pyrimidin-7-ylamino)cyclopentyl)methyl rel-sulfamate] | 95
COc1ccccc1-c1cc2nccc(N[C@@H]3C[C@H](COS(N)(=O)=O)[C@@H](O)[C@H]3O)n2n1 (relative stereo) [Compound I-072, (rac)-((1R,2R,3S,4R)-2,3-dihydroxy-4-(2-(2-methoxyphenyl)pyrazolo[1,5-a]pyrimidin-7-ylamino)cyclopentyl)methyl rel-sulfamate] | 100
NS(=O)(=O)OC[C@H]1C[C@@H](Nc2ccnc3cc(-c4c(Cl)cc(Cl)c5ccccc45)nn23)[C@H](O)[C@@H]1O [Compound I-117, (s.e.)-((1R,2R,3S,4R)-4-(2-(2,4-dichloronaphthalen-1-yl)pyrazolo[1,5-a]pyrimidin-7-ylamino)-2,3-dihydroxycyclopentyl)methyl sulfamate] | 92
NS(=O)(=O)OC[C@H]1C[C@@H](Nc2ccnc3cc(-c4cccc5cc(C(F)F)ccc45)nn23)[C@H](O)[C@@H]1O [Compound I-111, (s.e.)-((1R,2R,3S,4R)-4-(2-(6-(difluoromethyl)naphthalen-1-yl)pyrazolo[1,5-a]pyrimidin-7-ylamino)-2,3-dihydroxycyclopentyl)methyl sulfamate] | 100
